What was measured:
[1] = target: T1, Cavα2δ-1; assay: SPR (Biacore) on immobilized peptide; type: binding, Oryctolagus cuniculus
T1 construct: gene CACNA2D1; chemically synthesized peptide surrounding the K615 locus ([…]; peptide P3)

[2] = tested on: T1, Cavα2δ-1; assay: SPR (Biacore) on immobilized peptide; also […] lowers Cav2.[…] current in tsA201 cells, lost with R243A or K615A Cavα[…]δ-1; type: binding, Oryctolagus cuniculus

| Structure (SMILES) | Kd [1] | Kd [2] |
| --- | --- | --- |
| CCC1=C[C@@H]2[C@H](C1)C[C@]2(CN)Cc1nnn[nH]1 [NVA1309] | 273 ± 101 µM |  |
| CCC1=C[C@@H]2[C@H](C1)C[C@]2(CN)CC(=O)O [mirogabalin] |  | 161 ± 60 µM |

— article PMC11308618, “Determinants of interactions of a novel next-generation gabapentinoid NVA1309 and mirogabalin with the Cavα2δ-1 subunit” (Molecular Brain, 2024)
